Experimental findings from patent US12716055B2, “Treatment of disc degenerative disease and stimulation of proteoglycan synthesis by fibroblast conditioned media and formulations thereof” (FIBROBIOLOGICS, INC., priority 2019, dated 2026) are described below.

The assay deals with Neonatal foreskin fibroblasts. Put plainly: EGF production in foreskin fibroblasts cultured with naltrexone and TLR agonists (ELISA). It is filed as cell-based. Particulars: treatment of fibroblasts with opioid receptor antagonist, 12 hours of culture, 50% confluent. The source says: The present example characterizes the use of naltrexone and a TLR agonist to stimulate EGF production in foreskin fibroblasts as an example of a type of fibroblasts.
Neonatal foreskin fibroblasts were obtained from ATCC and cultured in typical DMEM culture media containing 10% fetal calf serum and antibiotics. After 3 days of culture, fibroblasts where plated in 12 well plates and cultured at 50% confluent conditions. Addition of naltrexone (Sigma Aldrich®) and the indicated TLR agonists was performed for 12 hours of culture. Pam3CSK4 was added at a total concentration of 1 ug/ml. LPS was added at 0.5 ug/ml. CpG was added at 0.2 ug/ml. Concentration of EGF was assessed using ELISA (R&D Systems).

Molecules are shown by their SMILES.

On to `O=C1CC[C@@]2(O)[C@H]3Cc4ccc(O)c5c4[C@@]2(CCN3CC2CC2)[C@H]1O5` [naltrexone], for which the “production of growth factors including EGF by fibroblasts” value is reported as “induce production of various growth factors including EGF”.
